Reference: ChEMBL document CHEMBL1135491, “Novel 2-oxoamide inhibitors of human group IVA phospholipase A(2)” (J Med Chem, 2002)
Active and inactive are the calls of the source. No cut-off for these calls is given here.

Columns and labels:
[1] = molecular target: T1, Cytosolic phospholipase A2 (Homo sapiens) (UniProt P47712); assay: Inhibitory activity against human Group IVA Phospholipase A2 (GIVA PLA2); Inactive
T1 sequence (whole entry): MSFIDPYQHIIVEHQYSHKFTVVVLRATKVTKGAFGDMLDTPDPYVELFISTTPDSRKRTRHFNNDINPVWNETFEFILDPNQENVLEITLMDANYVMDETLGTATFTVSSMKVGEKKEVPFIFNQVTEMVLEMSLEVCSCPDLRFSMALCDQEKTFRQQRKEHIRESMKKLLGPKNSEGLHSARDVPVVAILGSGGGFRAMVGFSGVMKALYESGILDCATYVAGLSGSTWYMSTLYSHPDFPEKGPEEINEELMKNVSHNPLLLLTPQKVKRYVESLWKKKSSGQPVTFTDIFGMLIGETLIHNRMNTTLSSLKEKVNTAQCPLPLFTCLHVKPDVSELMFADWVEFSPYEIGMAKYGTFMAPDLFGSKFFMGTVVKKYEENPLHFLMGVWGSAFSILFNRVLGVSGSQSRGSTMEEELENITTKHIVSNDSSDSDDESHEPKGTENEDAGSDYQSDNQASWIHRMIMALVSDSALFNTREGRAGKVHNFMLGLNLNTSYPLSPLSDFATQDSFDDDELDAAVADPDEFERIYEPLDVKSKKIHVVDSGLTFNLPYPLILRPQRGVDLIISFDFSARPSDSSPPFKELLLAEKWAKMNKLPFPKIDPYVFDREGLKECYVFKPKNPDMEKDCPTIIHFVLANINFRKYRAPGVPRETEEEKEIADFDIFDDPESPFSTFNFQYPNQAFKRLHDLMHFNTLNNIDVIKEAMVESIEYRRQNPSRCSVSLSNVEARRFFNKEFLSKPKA

[2] = molecular target: T1, Cytosolic phospholipase A2 (Homo sapiens); assay: Inhibitory activity against human Group IVA Phospholipase A2 (GIVA PLA2)
[3] = molecular target: T1, Cytosolic phospholipase A2 (Homo sapiens); assay: Inhibitory activity against human Group IVA Phospholipase A2 (GIVA PLA2), at 0.02 mole fraction

Row | SMILES | IA [1] | XI50 [2] | further results
1 | CCCCCCC(=O)C(=O)NCCCC(=O)O | inactive | – | –
2 | CCCCCCCCCCCCCCC(=O)C(=O)NCCCC(=O)O | – | 0.017 | –
3 | CCCCCCCC/C=C\CCCCCCCCNC(=O)C(=O)CCCCCCCCCCCCCC | inactive | – | –
4 | CCCCCCCCCCC(=O)C(=O)N[C@H](CCCC)CCC(=O)O | – | 0.068 | –
5 | CCCCCCCCCCC(=O)C(=O)N[C@@H](CCCC)CCC(=O)O | – | 0.009 | –
6 | CCCCCCCCCCCCCCC(=O)C(=O)NCCCCCC | – | – | inhibition [3]: 22%
7 | CCCCCCCCCCCCCC(=O)C(N)=O | inactive | – | –
8 | CCCCCCCC/C=C\CCCCCCCCNC(=O)C(=O)CCCCCC | inactive | – | –
